Entries after “also recorded” stand apart in the source; their conditions may differ.
Assays:
dermal CYP1A = assay: Dermal microsomal CYP1A enzymatic activity (7-ethoxyresorufin-O-deethylase), inhibition or enhancement; conditions: for inhibitory effect on dermal CYP1A activity, in words: at certain concentration (1, 10 or 100 μM); for enhancing effect on dermal CYP1A activity, in words: at certain concentrations (1, 10 or 100 μM)
Description: (§1) Nude mice were sacrificed by decapitation.
(§2) The precipitate containing the microsomes was obtained.

liver CYP1A = assay: Liver microsomal CYP1A enzymatic activity, inhibition or enhancement; conditions: for liver CYP1A activity (% of control group): liver microsomes
CYP1A = assay: in vitro; conditions: nude, mouse
Description: as §1, §2

[1] = at certain concentration (1, 10 or 100 μM)
[2] = compound 1 μM, skin microsomes, mean of at least 3 repeats
[3] = compound 10 μM, skin microsomes, mean of at least 3 repeats
[4] = compound 100 μM, skin microsomes, mean of at least 3 repeats
[5] = pH 7.8, dermal CYP1A activity (% of control group)

SMILES: C=C(C)C1CC=C(C)CC1 (single isomer, unassigned; (+)) [(+)-Limonene]
- inhibitory effect on dermal CYP1A activity, in words (dermal CYP1A): inhibition effects
- enhancing effect on dermal CYP1A activity, in words (dermal CYP1A): enhancing effects
- inhibition of dermal CYP1A activity (dermal CYP1A; compound 1 μM): about 51%

SMILES: Oc1cc(O)c2c(c1)O[C@H](c1ccc(O)c(O)c1)[C@@H](O)C2 [(+)-Catechin]
- enhancing effect on liver CYP1A activity, in words (liver CYP1A; [1]): enhancing effect
- inhibitory effect on liver CYP1A activity, in words (liver CYP1A; [1]): inhibitory effects
- liver CYP1A activity (% of control group) (liver CYP1A; compound 1 μM): 90.00%
- liver CYP1A activity (% of control group) (liver CYP1A; compound 10 μM): 120.23%
- liver CYP1A activity (% of control group) (liver CYP1A; compound 100 μM): 116.48%
- inhibitory effect on dermal CYP1A activity, in words (dermal CYP1A): inhibition effects
- enhancing effect on dermal CYP1A activity, in words (dermal CYP1A): enhancing effects
- inhibition of dermal CYP1A activity (dermal CYP1A; compound 1 μM): about 22%
- dermal CYP1A activity (% of control group) (dermal CYP1A; [2]): 78.10%
- dermal CYP1A activity (% of control group) (dermal CYP1A; [3]): 91.97%
- dermal CYP1A activity (% of control group) (dermal CYP1A; [4]): 99.99%

SMILES: Oc1cc(O)c2c(c1)O[C@@H](c1ccc(O)c(O)c1)[C@@H](O)C2 [(+)-Epicatechin]
- enhancing effect on liver CYP1A activity, in words (liver CYP1A; [1]): enhancing effect
- liver CYP1A activity (% of control group) (liver CYP1A; compound 1 μM): 124.29%
- liver CYP1A activity (% of control group) (liver CYP1A; compound 10 μM): 129.86%
- liver CYP1A activity (% of control group) (liver CYP1A; compound 100 μM): 130.95%
- inhibitory effect on dermal CYP1A activity, in words (dermal CYP1A): inhibition effects
- enhancing effect on dermal CYP1A activity, in words (dermal CYP1A): enhancing effects
- inhibition of dermal CYP1A activity (dermal CYP1A; compound 1 μM): about 34%
- dermal CYP1A activity (% of control group) (dermal CYP1A; [2]): 65.55%
- dermal CYP1A activity (% of control group) (dermal CYP1A; [3]): 86.15%
- dermal CYP1A activity (% of control group) (dermal CYP1A; [4]): 105.09%

SMILES: Oc1cc(O)c2c(c1)O[C@H](c1ccc(O)c(O)c1)[C@H](O)C2 [(−)-Epicatechin]
- enhancing effect on liver CYP1A activity, in words (liver CYP1A; [1]): enhancing effect; also recorded: most enhancing effect
- enhancing effect on liver CYP1A activity (liver CYP1A; compound 1 μM): about 34%
- liver CYP1A activity (% of control group) (liver CYP1A; compound 1 μM): 133.54%
- liver CYP1A activity (% of control group) (liver CYP1A; compound 10 μM): 139.91%
- liver CYP1A activity (% of control group) (liver CYP1A; compound 100 μM): 147.44%
- inhibitory effect on dermal CYP1A activity, in words (dermal CYP1A): inhibition effects
- enhancing effect on dermal CYP1A activity, in words (dermal CYP1A): enhancing effects; also recorded: strongest enhancing effect
- dermal CYP1A activity (% of control group) (dermal CYP1A; [2]): 85.69%
- enhancement of dermal CYP1A activity (dermal CYP1A; compound 10 μM): 22%
- dermal CYP1A activity (% of control group) (dermal CYP1A; [3]): 121.77%
- enhancement of dermal CYP1A activity (dermal CYP1A; compound 100 μM): about 30%
- dermal CYP1A activity (% of control group) (dermal CYP1A; [4]): 129.82%
- enhancement of dermal microsomal CYP1A activity (dermal CYP1A; concentration between about 10 μM and about 100 μM): at least 20%

SMILES: COc1ccc([C@@H]2CC(=O)c3c(O)cc(O)cc3O2)cc1O [Hesperetin]
- activity at 10 min, 1 µM (CYP1A; [5]): ~7%
- activity at 10 min, 10 µM (CYP1A; [5]): 24.6%
- activity at 10 min, 100 µM (CYP1A; [5]): 66%
- inhibition at 10 min, 1 µM (CYP1A; pH 7.8, inhibition of dermal CYP1A activity): > 90%
- dose dependence of the inhibitory effect on dermal CYP1A (dermal CYP1A): the higher the hesperetin concentration, the lower the inhibitory effect
- dermal CYP1A activity (% of control group) (dermal CYP1A; nude, mouse, 10 min, 1 µM, pH 7.8): 6.89%

SMILES: C=C[C@H]1[C@H](O[C@@H]2O[C@H](CO)[C@@H](O)[C@H](O)[C@H]2O)OC=C2C(=O)OCC[C@]21O [Swertiamarin]
- activity at 10 min, 1 µM (CYP1A; pH 7.8): 98.5%
- activity at 10 min, 10 µM (CYP1A; pH 7.8): 96.5%
- activity at 10 min, 100 µM (CYP1A; pH 7.8): 105%

SMILES: O=C/C=C/c1ccccc1 [Trans-cinnamaldehyde]
- inhibition at 10 min, 100 µM (CYP1A; pH 7.8): ~80%

SMILES: COc1c(O)cc2oc(Oc3ccc(O)cc3)cc(=O)c2c1O [capillarisin, Capillarisin]
- inhibitory effect on dermal CYP1A activity, in words (dermal CYP1A): strong inhibitory effects

SMILES: O=c1cc(-c2ccc(O)c(O)c2)oc2cc(O)c([C@@H]3O[C@H](CO)[C@@H](O)[C@H](O)[C@H]3O)c(O)c12 [homoorientin]
- inhibitory effect on dermal CYP1A activity, in words (dermal CYP1A): strong inhibitory effects
